Holding throughout (type): functional
The test system of assay [1] is Mus musculus. Put plainly: Dose required to cure 50% of Staphylococcus aureus infected mice in the presence of eperezolid when orally administered; value ranges from 0.1-6.6. To be noted: po.
Assay [2] has as its system Staphylococcus epidermidis. The experiment in a line: Inhibitory activity against Methicillin-resistant Staphylococcus epidermidis UC12084.
Assay [3] deals with Mus musculus. Put plainly: Dose required to cure 50% of Staphylococcus aureus infected mice when orally administered; value ranges 1.1-2.7. To be noted: po.
Another assay has as its system Streptococcus pneumoniae. The experiment in a line: Inhibitory activity against Streptococcus pneumoniae UC9912.
The test system of assay [4] is Mus musculus. The experiment in a line: Dose required to cure 50% of Staphylococcus aureus infected mice in the presence of eperezolid when orally administered; value ranges from 1.1-2.8. To be noted: po.
The subject of assay [5] is Staphylococcus aureus. The experiment in a line: Inhibitory activity against Methicillin-resistant Staphylococcus aureus UC6685.
Assay [6] relates to Staphylococcus aureus. The experiment in a line: Inhibitory activity against Methicillin-susceptible Staphylococcus aureus UC9213.
In another assay the test system is Haemophilus influenzae. The experiment in a line: Inhibitory activity against Haemophilus influenzae UC30063.
The test system of a further assay is Moraxella catarrhalis. Put plainly: Inhibitory activity against Moraxella catarrhalis UC30610.
Assay [7] has as its system Mus musculus. The experiment in a line: Dose required to cure 50% of Staphylococcus aureus infected mice when orally administered. The following applies: po.
The subject of a further assay is Enterococcus faecalis. Put plainly: Inhibitory activity against Enterococcus faecalis UC9217.
For assay [8], the system named is Mus musculus. Put plainly: Dose(orally administered) required to cure 50% of Staphylococcus aureus infected mice. To be noted: po.
Assay [9] relates to Mus musculus. The experiment in a line: Dose(orally administered) required to cure 50% of Staphylococcus aureus infected mice in the presence of vancomycin. The following applies: po.
Assay [10] deals with Mus musculus. The experiment in a line: Dose required to cure 50% of Staphylococcus aureus infected mice in the presence of vancomycin when orally administered; value ranges from 0.5-1.5. To be noted: po.
Assay [11] deals with Mus musculus. Put plainly: Dose(orally administered) required to cure 50% of Staphylococcus aureus infected mice in the presence of eperezolid. To be noted: po.
The subject of assay [12] is Mus musculus. Put plainly: Dose required to cure 50% of Staphylococcus aureus infected mice when administered orally; value ranges from 3.1-13.1. The following applies: po.
The test system of assay [13] is Mus musculus. Put plainly: Dose required to cure 50% of Staphylococcus aureus infected mice in the presence of vancomycin when administered orally; value arnges from 1.0-3.2. To be noted: po.
The subject of assay [14] is Mus musculus. The experiment in a line: Dose(orally administered) required to cure 50% of Staphylococcus aureus infected mice in the presence of eperezolid (95% confidence limits). The following applies: po.
Assay [15] concerns Mus musculus. The experiment in a line: Dose required to cure 50% of Staphylococcus aureus infected mice in the presence of eperezolid when administered orally;value ranges from 1.9-6.6. The following applies: po.
Assay [16] relates to Mus musculus. The experiment in a line: Dose administered required to cure 50% of Staphylococcus aureus infected mice when administered orally; value ranges from 2.0-4.9. To be noted: po.
Assay [17] has as its system Mus musculus. Put plainly: Dose required to cure 50% of Staphylococcus aureus infected mice when orally administered; value ranges from 3.5-9.1. To be noted: po.
The subject of assay [18] is Mus musculus. The experiment in a line: Dose required to cure 50% of Staphylococcus aureus infected mice in the presence of eperezolid when orally administered; value ranges from 2.2-2.9. To be noted: po.
Assay [19] has as its system Mus musculus. Put plainly: Dose required to cure 50% of Staphylococcus aureus infected mice in the presence of eperezolid when administered orally; value ranges from 1.8-7.0. The following applies: po.
The test system of assay [20] is Mus musculus. The experiment in a line: Dose required to cure 50% of Staphylococcus aureus infected mice when aministered orally; value ranges from 0.8-2.0. The following applies: po.

Converted amounts (≈) assume the structure as drawn.

Consider `CC(=O)NC[C@H]1CN(c2ccc(-n3ccc(C#N)c3)c(F)c2)C(=O)O1`, for which the ED50 in the assay on Mus musculus [1] worked out at 4 mg/kg/day; with Mus musculus [3], 1.9 mg/kg/day. Also, the MIC (in assay [2]; in the assay with Streptococcus pneumoniae) was not above 0.125 µg/mL each time.
Regarding `CC(=O)NC[C@H]1CN(c2ccc(-n3cccn3)c(F)c2)C(=O)O1`, the MIC was found to be 1 µg/mL (≈ 3.14 µM) in assay [2]; 2 µg/mL (≈ 6.28 µM) with Staphylococcus aureus [5]; 2 µg/mL (≈ 6.28 µM) in the assay on Staphylococcus aureus [6]; 1 µg/mL (≈ 3.14 µM) with Streptococcus pneumoniae; 32 µg/mL (≈ 101 µM) against Haemophilus influenzae; 16 µg/mL (≈ 50.3 µM) against Moraxella catarrhalis. Also, the MIC in the assay with Enterococcus faecalis came to 2 µg/mL (≈ 6.28 µM). Also, the ED50 in the assay with Mus musculus [4] is 1.8 mg/kg/day; in the assay with Mus musculus [7], more than 20 mg/kg/day.
For `CC(=O)NC[C@H]1CN(c2ccc(-n3cnc(Cl)n3)c(F)c2)C(=O)O1`, the MIC in assay [2] was 0.5 µg/mL (≈ 1.41 µM); against Staphylococcus aureus [5] it was 2 µg/mL (≈ 5.65 µM); in the assay on Staphylococcus aureus [6] it was 4 µg/mL (≈ 11.3 µM); against Streptococcus pneumoniae it was less than 0.125 µg/mL; with Haemophilus influenzae, 16 µg/mL (≈ 45.2 µM); in the assay on Moraxella catarrhalis, 2 µg/mL (≈ 5.65 µM). The same compound came in with an MIC with Enterococcus faecalis of 2 µg/mL (≈ 5.65 µM). Further, the ED50 in the assay with Mus musculus [8] was 9.4 mg/kg/day; with Mus musculus [9] it was 5 mg/kg/day.
On to `CC(=O)NC[C@H]1CN(c2ccc(-n3ccc(CO)c3)c(F)c2)C(=O)O1`, for which the MIC was found to be 0.25 µg/mL (≈ 0.72 µM) in assay [2]; 1 µg/mL (≈ 2.88 µM) with Staphylococcus aureus [5]; 1 µg/mL (≈ 2.88 µM) in the assay on Staphylococcus aureus [6]; 0.25 µg/mL (≈ 0.72 µM) against Streptococcus pneumoniae; 4 µg/mL (≈ 11.5 µM) in the assay with Haemophilus influenzae; 2 µg/mL (≈ 5.76 µM) with Moraxella catarrhalis. This compound also showed an MIC in the assay on Enterococcus faecalis of 1 µg/mL (≈ 2.88 µM). Besides, the ED50 with Mus musculus [10] is 0.9 mg/kg/day; in the assay on Mus musculus [7], more than 20 mg/kg/day.
As for `CC(=O)NC[C@H]1CN(c2ccc(-n3cc(C=O)nn3)c(F)c2)C(=O)O1`, the MIC was less than 0.125 µg/mL in assay [2]; 0.25 µg/mL (≈ 0.72 µM) against Staphylococcus aureus [5]; 0.5 µg/mL (≈ 1.44 µM) with Staphylococcus aureus [6]; 0.25 µg/mL (≈ 0.72 µM) in the assay with Streptococcus pneumoniae; 4 µg/mL (≈ 11.5 µM) against Haemophilus influenzae; 2 µg/mL (≈ 5.76 µM) in the assay on Moraxella catarrhalis. The MIC in the assay with Enterococcus faecalis is 0.5 µg/mL (≈ 1.44 µM). Moreover, the ED50 with Mus musculus [8] is more than 20 mg/kg/day; with Mus musculus [11], 1.1 mg/kg/day.
Consider `CC(=O)NC[C@H]1CN(c2ccc(-n3cncn3)c(F)c2)C(=O)O1`, for which the MIC in assay [2] worked out at 1 µg/mL (≈ 3.13 µM); in the assay on Staphylococcus aureus [5], 4 µg/mL (≈ 12.5 µM); in the assay on Staphylococcus aureus [6], 4 µg/mL (≈ 12.5 µM); against Streptococcus pneumoniae, 1 µg/mL (≈ 3.13 µM); in the assay with Haemophilus influenzae it was 32 µg/mL (≈ 100 µM); against Moraxella catarrhalis it was 16 µg/mL (≈ 50.1 µM). For the same compound, the MIC against Enterococcus faecalis stood at 4 µg/mL (≈ 12.5 µM). Further, the ED50 in the assay on Mus musculus [12] turned out to be 5.7 mg/kg/day; in the assay on Mus musculus [13] it was 2.4 mg/kg/day.
Turning to `CCOC(=O)/C=C/c1ccn(-c2ccc(N3C[C@H](CNC(C)=O)OC3=O)cc2F)c1`, the MIC came out at 2 µg/mL (≈ 4.81 µM) in assay [2]; 4 µg/mL (≈ 9.63 µM) in the assay on Staphylococcus aureus [5]; 4 µg/mL (≈ 9.63 µM) in the assay with Staphylococcus aureus [6]; 0.5 µg/mL (≈ 1.2 µM) against Streptococcus pneumoniae; 32 µg/mL (≈ 77 µM) in the assay on Haemophilus influenzae; 4 µg/mL (≈ 9.63 µM) in the assay with Moraxella catarrhalis. In addition, the MIC against Enterococcus faecalis was 2 µg/mL (≈ 4.81 µM). Also, the ED50 with Mus musculus [8] was more than 20 mg/kg/day; in the assay with Mus musculus [14], 2.1 mg/kg/day.
`CC(=O)NC[C@H]1CN(c2ccc(-n3ncc(C#N)n3)c(F)c2)C(=O)O1`: the MIC in assay [2] was not above 0.125 µg/mL; in the assay on Staphylococcus aureus [5], 0.5 µg/mL (≈ 1.45 µM); in the assay on Staphylococcus aureus [6] it was 0.5 µg/mL (≈ 1.45 µM); in the assay with Streptococcus pneumoniae, not above 0.125 µg/mL; in the assay with Haemophilus influenzae, 8 µg/mL (≈ 23.2 µM); in the assay with Moraxella catarrhalis, 2 µg/mL (≈ 5.81 µM). In the assay with Enterococcus faecalis, this compound displayed an MIC of 0.5 µg/mL (≈ 1.45 µM). The values for the median effective dose (ED50) with Mus musculus [15] and in the assay with Mus musculus [16] were 3.8 mg/kg/day and 3.2 mg/kg/day, respectively.
`CC(=O)NC[C@H]1CN(c2ccc(-n3ccc(/C=N\O)c3)c(F)c2)C(=O)O1`: the MIC in the assay on Streptococcus pneumoniae is not above 0.125 µg/mL. In addition, the figures for the ED50 with Mus musculus [17] and in the assay with Mus musculus [18] were 5.5 mg/kg/day and 2.6 mg/kg/day, respectively.
As to `CC(=O)NC[C@H]1CN(c2ccc(-n3cc(C#N)cn3)c(F)c2)C(=O)O1`, the MIC in assay [2] is 0.25 µg/mL (≈ 0.728 µM); with Streptococcus pneumoniae it was not above 0.125 µg/mL. Further, the median effective dose (ED50) came to 3.3 mg/kg/day with Mus musculus [19] and 1.2 mg/kg/day with Mus musculus [20].

These data come from ChEMBL document CHEMBL1132968, “Substituent effects on the antibacterial activity of nitrogen-carbon-linked (azolylphenyl)oxazolidinones with expanded activity against the fastidious gram-negative organisms Haemophilus influenzae and Moraxella catarrhalis” (2000).
